What was measured:
CDK-2/cyclin A2 = CDK-2/cyclin A2 (Homo sapiens, UniProt P24941); experiment: CDK-2/cyclin A2 inhibitory assay (ELISA); type: biochemical; details: for IC50: mean of three values, read-out: IC50 (Mean ± SEM), CDK-2/Cyclin A2
Experimental: Assay of CDK-2/cyclin A2 was achieved through ELISA using an affinity tag labeled capture antibody. […] After the incubation period, the unrestrained substance has been discarded, and the wells have been washed. The added TMB (3,3′,5,5′-tetramethylbenzidine) substrate was prompted by Horseradish peroxidase (HRP), and blue coloration appeared. This reaction was stopped through the addition of stop solution to complete changing in colour from blue to yellow. The created signals were equivalent to the quantity of bound analyte, and the Robonik P2000 ELISA reader was used to record the intensity at a certain wavelength (450 nm).

EGFR = EGFR (Homo sapiens, UniProt P00533); experiment: EGFR kinase inhibitory assay (Kinase-Glo Max luminescence); type: biochemical; details: for IC50: mean of three values, read-out: IC50 (Mean ± SEM), EGFR
EGFR, sequence (P00533 25-1210): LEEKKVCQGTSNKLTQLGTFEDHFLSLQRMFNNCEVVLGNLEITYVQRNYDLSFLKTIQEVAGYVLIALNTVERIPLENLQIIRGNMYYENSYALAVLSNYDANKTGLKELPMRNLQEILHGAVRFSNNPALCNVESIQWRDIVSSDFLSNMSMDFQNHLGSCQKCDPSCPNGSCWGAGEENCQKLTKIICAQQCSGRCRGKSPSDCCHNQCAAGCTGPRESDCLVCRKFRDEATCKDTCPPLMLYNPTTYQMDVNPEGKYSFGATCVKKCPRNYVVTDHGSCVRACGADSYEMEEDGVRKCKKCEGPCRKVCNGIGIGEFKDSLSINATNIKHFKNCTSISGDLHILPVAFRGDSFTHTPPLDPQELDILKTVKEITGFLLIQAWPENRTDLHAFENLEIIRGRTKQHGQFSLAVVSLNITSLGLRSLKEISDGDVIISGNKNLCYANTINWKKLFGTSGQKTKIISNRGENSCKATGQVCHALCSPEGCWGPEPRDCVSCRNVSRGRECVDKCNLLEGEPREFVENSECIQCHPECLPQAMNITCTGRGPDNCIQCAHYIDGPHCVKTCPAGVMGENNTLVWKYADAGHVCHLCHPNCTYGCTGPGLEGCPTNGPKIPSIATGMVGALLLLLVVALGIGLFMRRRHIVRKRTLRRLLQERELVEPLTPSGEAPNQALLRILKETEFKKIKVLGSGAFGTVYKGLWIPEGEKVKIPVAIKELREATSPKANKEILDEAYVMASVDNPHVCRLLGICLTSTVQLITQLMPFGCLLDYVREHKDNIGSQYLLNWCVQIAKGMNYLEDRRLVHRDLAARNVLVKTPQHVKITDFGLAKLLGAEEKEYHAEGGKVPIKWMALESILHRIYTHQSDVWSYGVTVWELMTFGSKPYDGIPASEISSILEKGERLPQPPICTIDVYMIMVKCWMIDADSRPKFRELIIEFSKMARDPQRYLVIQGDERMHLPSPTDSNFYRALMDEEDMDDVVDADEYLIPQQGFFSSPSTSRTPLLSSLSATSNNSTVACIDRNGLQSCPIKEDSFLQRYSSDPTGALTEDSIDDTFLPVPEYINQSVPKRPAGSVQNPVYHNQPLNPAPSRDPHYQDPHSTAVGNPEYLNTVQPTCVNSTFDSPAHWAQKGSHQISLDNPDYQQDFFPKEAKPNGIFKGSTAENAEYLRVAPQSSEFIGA

[1] = test system: human colorectal adenocarcinoma (Caco-2 cell lines); experiment: MTT cytotoxicity assay, Caco-2; type: cell-based; details: Caco-2, 48 h
Experimental: (§1) The synthesized compounds were studied for their cytotoxic activity against several human cancer cell lines, namely human osteosarcoma (HOS cell lines), human breast adenocarcinoma (MDA-MB-231 cell lines), human breast cancer (MCF-7 cell lines), human colorectal adenocarcinoma (Caco-2 cell lines) and human colon cell line (HCT-116 cell lines) using MTT assay at 100 µM, and the results were outlined as shown in Table 1.
(§2) Human osteosarcoma (HOS cell line), human breast adenocarcinoma (MDA-MB-231cell lines), human breast cancer (MCF-7 cell lines), human colorectal adenocarcinoma (Caco2 cell lines), human colon cell line (HCT-116 cell lines), normal human cell lines (BJ-1), and “a telomerase immortalized normal foreskin fibroblast cell line” were obtained from Karolinska Center, Department of Oncology and Pathology, Karolinska Institute and Hospital, Stockholm, Sweden.
(§3) Following culturing for 10 days, the cells were seeded at concentration of 10 × 10^3 cells per well in case of MCF-7 & MDA, 20 × 10^3 cells/well in a fresh complete growth medium in case of HCT-116, Caco2, & HOS and 40 × 10^3 cells/well in case of BJ-1 at 37 °C for 24 h in a water jacketed carbon dioxide incubator. After 48 h’ incubation, the medium was aspirated, and then 40 μl MTT salt (2.5 mg/mL) were added for a further 4 h; 200 μl 10% sodium dodecyl sulphate (SDS) in deionized water were added to each well and incubated overnight at 37 °C. The absorbance was measured at 595 nm with reference 690 nm. Doxorubicin was used as positive control, and 0.5% DMSO was used as negative control. IC50 values were calculated, using a probit analysis, and by utilizing the SPSS computer program (SPSS for Windows, statistical analysis software package/version 9/1989 SPSS Inc., Chicago, IL, USA).

[2] = test system: human colon cell line (HCT-116 cell lines); experiment: MTT cytotoxicity assay, HCT-116; type: cell-based; details: for cytotoxicity at 100 µM: HCT-116, 48 h
Experimental: as §1, §2, §3

VEGFR-2 = VEGFR-2 (Homo sapiens, UniProt P35968); experiment: VEGFR-2 inhibitory assay (ELISA); type: biochemical; details: for IC50: mean of three values, read-out: IC50 (Mean ± SEM), VEGFR-2
VEGFR-2, sequence (P35968 20-1356): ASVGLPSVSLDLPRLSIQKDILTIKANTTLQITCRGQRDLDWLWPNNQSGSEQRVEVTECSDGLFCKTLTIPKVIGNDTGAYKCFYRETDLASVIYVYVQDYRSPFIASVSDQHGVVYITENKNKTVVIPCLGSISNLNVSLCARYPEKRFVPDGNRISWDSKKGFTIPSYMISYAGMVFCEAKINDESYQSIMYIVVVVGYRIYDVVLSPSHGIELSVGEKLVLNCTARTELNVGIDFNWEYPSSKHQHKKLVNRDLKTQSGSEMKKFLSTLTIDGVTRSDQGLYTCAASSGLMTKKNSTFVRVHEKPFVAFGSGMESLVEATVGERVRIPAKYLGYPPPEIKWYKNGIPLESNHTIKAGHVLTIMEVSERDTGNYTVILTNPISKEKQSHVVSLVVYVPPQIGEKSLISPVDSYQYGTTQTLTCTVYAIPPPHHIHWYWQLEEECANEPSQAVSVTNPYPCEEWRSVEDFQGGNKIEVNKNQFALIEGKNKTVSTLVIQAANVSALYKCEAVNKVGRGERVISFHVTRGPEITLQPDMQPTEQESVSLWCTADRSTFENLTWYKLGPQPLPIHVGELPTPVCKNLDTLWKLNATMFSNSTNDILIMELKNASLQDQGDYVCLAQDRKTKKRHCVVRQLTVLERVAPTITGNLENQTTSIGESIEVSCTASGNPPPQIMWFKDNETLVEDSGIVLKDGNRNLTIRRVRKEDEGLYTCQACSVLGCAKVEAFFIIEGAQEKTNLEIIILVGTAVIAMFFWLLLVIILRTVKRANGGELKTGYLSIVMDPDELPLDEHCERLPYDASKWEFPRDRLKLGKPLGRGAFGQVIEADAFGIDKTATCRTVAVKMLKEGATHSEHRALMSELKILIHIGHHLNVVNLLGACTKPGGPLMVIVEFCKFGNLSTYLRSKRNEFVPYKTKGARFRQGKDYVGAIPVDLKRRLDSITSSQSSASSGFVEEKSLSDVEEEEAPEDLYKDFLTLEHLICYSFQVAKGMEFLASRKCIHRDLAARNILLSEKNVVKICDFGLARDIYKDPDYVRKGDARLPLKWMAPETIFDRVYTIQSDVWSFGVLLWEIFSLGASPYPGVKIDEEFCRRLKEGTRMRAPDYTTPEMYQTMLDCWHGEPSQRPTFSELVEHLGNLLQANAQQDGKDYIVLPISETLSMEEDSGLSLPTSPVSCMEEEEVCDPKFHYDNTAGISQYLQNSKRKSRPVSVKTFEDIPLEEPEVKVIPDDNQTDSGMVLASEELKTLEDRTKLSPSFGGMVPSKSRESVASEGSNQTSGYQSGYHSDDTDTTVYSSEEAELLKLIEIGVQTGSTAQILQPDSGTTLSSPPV
Experimental: The cells were harvested, and the homogenates were prepared in saline using a tight pestle homogenizer until complete cell disruption. The kit uses a double-antibody sandwich enzyme-linked immunosorbent assay (ELISA) to determine the level of human VEGFR-2 in samples. A monoclonal antibody for VEGFR-2 was pre-coated onto 96-well plates. The test samples are added to the wells, and a biotinylated detection polyclonal antibody from goat specific for VEGFR-2 was added subsequently followed by washing with PBS buffer. Avidin-Biotin-Peroxidase complex was added, and the unbound conjugates were washed away with PBS buffer. HRP substrate TMB was used to visualize HRP enzymatic reaction. TMB was catalyzed by HRP to produce a blue color product that changed into yellow after adding acidic stop solution. The density of yellow color is proportional to the human VEGFR-2 amount of the sample captured in the plate. The chroma of color and the concentration of the human VEGFR-2 of the samples were positively correlated, and the optical density was determined at 450 nm. The level of human VEGFR-2 in samples was calculated (pg/ml) as duplicate determinations from the standard curve. Percent inhibition was calculated in comparison to control untreated cells.

[3] = test system: human breast adenocarcinoma (MDA-MB-231 cell lines); experiment: MTT cytotoxicity assay, MDA-MB-231; type: cell-based; details: MDA-MB-231, 48 h
Experimental: as §1, §2, §3

[4] = test system: human osteosarcoma (HOS cell lines); experiment: MTT cytotoxicity assay, HOS; type: cell-based; details: 48 h
Experimental: as §1, §2, §3

[5] = test system: human breast cancer (MCF-7 cell lines); experiment: MTT cytotoxicity assay, MCF-7; type: cell-based; details: for cytotoxicity at 100 µM: MCF7, 48 h; for IC50: MCF7, MTT, 0.78–100 µM, ± SD
Experimental: as §1, §2, §3

[6] = test system: normal human skin cell lines BJ-1; experiment: Safety on normal human skin cells BJ-1 (MTT); type: cell-based; details: 100 µM
Experimental: To determine the selectivity and safety, all tested compounds were subjected to an assay for their safety upon normal human skin cell lines BJ-1 at a concentration of 100 µM.
as §2, §3

**Q.** With CC(=O)OC[C@H]1O[C@@H](OCc2cn(CCCOc3ccc4c(-c5ccccc5)cc(=O)oc4c3)nn2)[C@H](OC(C)=O)[C@@H](OC(C)=O)[C@H]1OC(C)=O [Compound 21] as the molecule, how does the melting point read?
**A.** 114 to 115 °C

**Q.** What about the “Inhibitory activity against CDK-2/cyclin A2 (in words)” value (CDK-2/cyclin A2) of the same molecule?
**A.** no inhibitory activities

**Q.** What about the IC50 (CDK-2/cyclin A2) of the same molecule?
**A.** 211 ± 0.05 µM

**Q.** And the “Inhibitory activity against EGFR (in words)” value (EGFR)?
**A.** no inhibitory activities

**Q.** What about the IC50 (EGFR) of the same molecule?
**A.** 123 ± 0.1 µM

**Q.** What about the cytotoxicity at 100 µM [1] of the same molecule?
**A.** 59.2 ± 1.1%

**Q.** What about the cytotoxicity at 100 µM [2] of the same molecule?
**A.** 64.9 ± 0.5%

**Q.** And the IC50 ([2]; HCT-116, MTT, 0.78–100 µM, ± SD)?
**A.** 82.8 ± 2.3 µM

**Q.** And the “Inhibitory activity against VEGFR-2 (in words)” value (VEGFR-2)?
**A.** no inhibitory activities

**Q.** And the IC50 (VEGFR-2)?
**A.** 172 ± 0.02 µM

**Q.** And the cytotoxicity at 100 µM [3]?
**A.** 26.4 ± 0.3%

**Q.** What about the cytotoxicity at 100 µM [4] of the same molecule?
**A.** 58.3 ± 1.7%

**Q.** What about the cytotoxicity at 100 µM [5] of the same molecule?
**A.** 85.4 ± 1.8%

**Q.** What about the IC50 [5] of the same molecule?
**A.** 38.9 ± 0.8 µM

**Q.** With Cn1c(COc2ccc3c(-c4ccccc4)cc(=O)oc3c2)nnc1SC1OCC(O)C(O)C1O [Compound 8, 4-Phenyl-7-((4-methyl-5-(1-(β-D-xylopyranosyl)thio)-4H-1,2,4-triazol-3-yl)meth-oxy)-2H-chromen-2-one] as the molecule, how does the melting point read?
**A.** 231 to 232 °C

**Q.** And the IC50 (CDK-2/cyclin A2)?
**A.** 0.24 ± 0.2 µM

**Q.** And the IC50 (EGFR)?
**A.** 0.22 ± 0.01 µM

**Q.** And the cytotoxicity at 100 µM [1]?
**A.** 28.4 ± 0.6%

**Q.** And the cytotoxicity at 100 µM [2]?
**A.** 23 ± 0.6%

**Q.** What about the IC50 (VEGFR-2) of the same molecule?
**A.** 0.93 ± 0.42 µM

**Q.** And the cytotoxicity at 100 µM [3]?
**A.** 37.1 ± 2.3%

**Q.** What about the cytotoxicity at 100 µM [4] of the same molecule?
**A.** 41.9 ± 0.7%

**Q.** What about the cytotoxicity at 100 µM [5] of the same molecule?
**A.** 60.1 ± 0.7%

**Q.** And the IC50 [5]?
**A.** 52.2 ± 1.3 µM

**Q.** For CCn1c(COc2ccc3c(-c4ccccc4)cc(=O)oc3c2)nnc1SCCOCCO [Compound 12, 4-Phenyl-7-((4-ethyl-5-((2-(2-hydroxyethoxy)ethyl)thio)-4H-1,2,4-triazol-3-yl)methoxy)-2H-chromen-2-one], which “Toxicity on normal skin cells BJ-1 (in words)” value (“Toxicity … (in words)” below) [6] is on record?
**A.** high toxicity

**Q.** What about the melting point of the same molecule?
**A.** 152 to 153 °C

**Q.** And the cytotoxicity at 100 µM [1]?
**A.** 92 ± 1.3%

**Q.** And the cytotoxicity at 100 µM [2]?
**A.** 84.4 ± 0.8%

**Q.** What about the cytotoxicity at 100 µM [3] of the same molecule?
**A.** 91.2 ± 0.8%

**Q.** And the cytotoxicity at 100 µM [4]?
**A.** 97.2 ± 1.3%

**Q.** What about the cytotoxicity at 100 µM [5] of the same molecule?
**A.** 97.6 ± 0.9%

**Q.** Which “Toxicity … (in words)” value [6] does the source give for O=c1cc(-c2ccccc2)c2ccc(OCCCCn3cc(CO[C@@H]4O[C@H](CO)[C@H](O)[C@H](O)[C@H]4O)nn3)cc2o1 [Compound 26] here?
**A.** high toxicity

**Q.** What about the melting point of the same molecule?
**A.** 195 to 196 °C

**Q.** What about the cytotoxicity at 100 µM [1] of the same molecule?
**A.** 2.6 ± 0.2%

**Q.** What about the cytotoxicity at 100 µM [2] of the same molecule?
**A.** 83.9 ± 0.9%

**Q.** And the cytotoxicity at 100 µM [3]?
**A.** 31.4 ± 0.5%

**Q.** What about the cytotoxicity at 100 µM [4] of the same molecule?
**A.** 66.9 ± 2.2%

**Q.** And the cytotoxicity at 100 µM [5]?
**A.** 91.8 ± 1.2%

**Q.** With CCn1c(COc2ccc3c(-c4ccccc4)cc(=O)oc3c2)nnc1SCC(O)CO (stereo not shown) [Compound 14, 4-Phenyl-7-((5-((2,3-dihydroxypropyl)thio)-4-ethyl-4H-1,2,4-triazol-3-yl)methoxy)-2H-chromen-2-one] as the molecule, how does the “Toxicity … (in words)” value [6] read?
**A.** high toxicity

**Q.** What about the melting point of the same molecule?
**A.** 180 to 181 °C

**Q.** What about the cytotoxicity at 100 µM [1] of the same molecule?
**A.** 91.2 ± 2.1%

**Q.** And the cytotoxicity at 100 µM [2]?
**A.** 95.2 ± 0.9%

**Q.** And the cytotoxicity at 100 µM [3]?
**A.** 97.8 ± 0.7%

**Q.** And the cytotoxicity at 100 µM [4]?
**A.** 90.5 ± 1.1%

**Q.** What about the cytotoxicity at 100 µM [5] of the same molecule?
**A.** 98.1 ± 0.3%

**Q.** Which results are given for O=c1cc(-c2ccccc2)c2ccc(OCCCn3cc(CO[C@@H]4OC[C@@H](O)[C@H](O)[C@H]4O)nn3)cc2o1 [Compound 25]?
**A.** Toxicity on normal skin cells BJ-1 (in words) [6]: high toxicity; melting point: 188 to 189 °C; cytotoxicity at 100 µM [1]: 82.7 ± 1.1%; cytotoxicity at 100 µM [2]: 97.1 ± 1.1%; cytotoxicity at 100 µM [3]: 94.2 ± 2.2%; cytotoxicity at 100 µM [4]: 90.4 ± 0.8%; cytotoxicity at 100 µM [5]: 81.9 ± 0.9%

Source: paper PMC9458111, “New 1,2,3-Triazole-Coumarin-Glycoside Hybrids and Their 1,2,4-Triazolyl Thioglycoside Analogs Targeting Mitochondria Apoptotic Pathway: Synthesis, Anticancer Activity and Docking Simulation” (Molecules, 2022)
